Assay results: patent publication US8846739B2, “TGR5 agonists” (Exelixis Patent Company LLC, priority 2009, dated 2014)

What was measured:
human TGR5 (h-TGR5) = molecular target: T1, human TGR5 (h-TGR5) (Homo sapiens, UniProt Q8TDU6); assay: TGR5/CRE-Luciferase Assay; type: cell-based; conditions: HEK 293 hTGR5/CRE-Luc cells, 6 hours incubation, read-out: CRE-Luc Agonist (EC50)
T1 sequence (Q8TDU6 1-330): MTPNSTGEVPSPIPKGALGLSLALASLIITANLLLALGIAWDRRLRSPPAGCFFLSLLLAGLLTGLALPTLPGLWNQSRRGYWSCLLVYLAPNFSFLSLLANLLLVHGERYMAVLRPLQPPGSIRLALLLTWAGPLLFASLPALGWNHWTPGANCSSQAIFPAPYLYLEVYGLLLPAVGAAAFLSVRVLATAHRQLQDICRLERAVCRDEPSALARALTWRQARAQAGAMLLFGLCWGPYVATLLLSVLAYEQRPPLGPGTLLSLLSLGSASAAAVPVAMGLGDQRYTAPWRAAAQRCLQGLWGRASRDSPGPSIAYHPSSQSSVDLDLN
Experimental: HEK 293 cells stably expressing human TGR5 (h-TGR5) or mouse TGR5 (m-TGR5) were generated from HEK 293 CRE-Luciferase cells. The day before the assay, HEK 293 hTGR5/CRE-Luc cells were plated in DMEM in a 384 well assay plate at a density of 25 k cells/45 μL per well and grown for 18-20 hours. Compounds were serially diluted in DMEM containing 5% DMSO and 5 µL of compound or media alone was transferred to each well and plates were incubated for 6 hours. Following incubation, 30 μL of lysis/luciferase buffer was added to each well. The luciferase activity was then measured on the EnVision™ plate reader and the dose response data was analyzed using ActivityBase.
(§1) In the following tables, ECso values determined according to the TGR5 cAMP Assay are noted (cAMP); EC50 values determined according to the TGR5/CRE-Luciferiase Assay are noted (CRE-Luc).

h-TGR5 = molecular target: T2, h-TGR5 (Homo sapiens, UniProt Q8TDU6); assay: TGR5 cAMP Assay using Cisbio cAMP Dynamic 2 htrf assay kit; type: cell-based; conditions: hTGR5CRE-luc HEK 293 cells
T2 sequence (Q8TDU6 1-330): T1 sequence (Q8TDU6 1-330)
Experimental: Compounds were diluted in DPBS with 5% DMSO (8-point serial dilution by half logs) in a 96-well plate and 1 μL was transferred to a 384-well assay plate in quadruplicate. The d2-cAMP and anti-cAMP Ab-cryptate stock solution were prepared as per the instructions in the Cisbio™ (Bedford, Mass.) kit. Cells (hTGR5CRE-luc HEK 293 and mTGR5CRE-luc HEK 293) were harvested using cell dissociation buffer and resuspended in DPBS. Cells were adjusted to 0.44×10^6 cells/ml followed by addition of IBMX to a final concentration of 0.5 mM. The cells were then mixed with d2-cAMP solution (7.1 mL cells+100 ul d2-cAMP) and 4000 cells (9 μL) were transferred to each well of the 384-well assay plate. Cells without d2-cAMP were added to eight wells as a negative control. The plate was covered and incubated at room temp for 30 min. Then 10 μL of Ab-cryptate solution was added to each well of the assay plate and incubated for 1 hr. The plate was read on an EnVision™ plate reader (Perkin-Elmer, Waltham, Mass.) and the DeltaF value was calculated as per the instructions in the Cisbio™ kit.
as §1

Row | EC50 (human TGR5 (h-TGR5)) | EC50 (h-TGR5) | SMILES
1 | < 100 nM | < 100 nM | COc1cc(C(C)(C)c2cnc(SCc3c(F)cc(S(=O)(=O)N(CCCC[N+](C)(C)C)CC(=O)O)cc3F)n2-c2ccc(F)cc2)ccc1Cl [Compound 14o, 4-[(carboxymethyl){[4-({[5-{1-[4-chloro-3-(methyloxy)phenyl]-1-methylethyl}-1-(4-fluorophenyl)-1H-imidazol-2-yl]thio}methyl)-3,5-difluorophenyl]sulfonyl}amino]-N,N,N-trimethylbutan-1-aminium]
2 | < 100 nM | < 100 nM | COc1cc(C(C)(C)c2cnc(SCc3c(F)cc(CCCC[N+](C)(C)C)cc3F)n2-c2ccc(F)cc2)ccc1Cl [Compound 19e, 4-(4-((5-(2-(4-chloro-3-methoxyphenyl)propan-2-yl)-1-(4-fluorophenyl)-1H-imidazol-2-ylthio)methyl)-3,5-difluorophenyl)-N,N,N-trimethylbutan-1-aminium 2,2,2-trifluoroacetate]
3 | < 100 nM | < 100 nM | CN([C@@H](CCC[N+](C)(C)C)C(=O)O)S(=O)(=O)c1cc(F)c(CSc2ncc(C(C)(C)c3ccc(F)c(Cl)c3)n2-c2ccc(F)cc2)c(F)c1 [Compound 14h, (S)-4-carboxy-4-(4-((5-(2-(3-chloro-4-fluorophenyl)propan-2-yl)-1-(4-fluorophenyl)-1H-imidazol-2-ylthio)methyl)-3,5-difluoro-N-methylphenylsulfonamido)-N,N,N-trimethylbutan-1-aminium chloride]
4 | < 100 nM | < 100 nM | COc1cc(C(C)(C)c2cnc(SCc3c(F)cc(S(=O)(=O)N(CCC[N+](C)(C)C)CC(=O)O)cc3Cl)n2-c2ccc(F)cc2)ccc1F [Compound 14n, 3-[(carboxymethyl){[3-chloro-5-fluoro-4-({[5-{1-[4-fluoro-3-(methyloxy)phenyl]-1-methylethyl}-1-(4-fluorophenyl)-1H-imidazol-2-yl]thio}methyl)phenyl]sulfonyl}amino]-N,N,N-trimethylpropan-1-aminium]
5 | < 100 nM | < 100 nM | COc1ccc(C(C)(C)c2cnc(SCc3c(F)cc(S(=O)(=O)N(C)[C@@H](CCC[N+](C)(C)C)C(=O)O)cc3F)n2-c2ccc(F)cc2)cc1Cl [Compound 14g, (S)-4-carboxy-4-(4-((5-(2-(3-chloro-4-methoxyphenyl)propan-2-yl)-1-(4-fluorophenyl)-1H-imidazol-2-ylthio)methyl)-3,5-difluoro-N-methylphenylsulfonamido)-N,N,N-trimethylbutan-1-aminium chloride]

More lines, now with the values behind:

Row | SMILES | EC50 (human TGR5 (h-TGR5)) | EC50 (h-TGR5)
6 | COc1cc(C(C)(C)c2cnc(SCc3c(F)cc(S(=O)(=O)NCC[N+](C)(C)C)cc3F)n2-c2ccc(F)cc2)ccc1Cl [Example 6k, 2-({[4-({[5-{1-[4-chloro-3-(methyloxy)phenyl]-1-methylethyl}-1-(4-fluorophenyl)-1H-imidazol-2-yl]thio}methyl)-3,5-difluorophenyl]sulfonyl}amino)-N,N,N-trimethylethanaminium] | < 100 nM | < 100 nM
7 | CC[N+](CC)(CC)CCCNS(=O)(=O)c1cc(F)c(CSc2ncc(C(C)(C)c3ccc(Cl)c(OC)c3)n2-c2ccc(F)cc2)c(F)c1 [Example 6m, 3-({[4-({[5-{1-[4-chloro-3-(methyloxy)phenyl]-1-methylethyl}-1-(4-fluorophenyl)-1H-imidazol-2-yl]thio}methyl)-3,5-difluorophenyl]sulfonyl}amino)-N,N,N-triethylpropan-1-aminium] | < 100 nM | < 100 nM
8 | COc1ccc(C(C)(C)c2cnc(SCc3c(F)cc(S(=O)(=O)NCCC[N+](C)(C)C)cc3F)n2-c2ccc(F)cc2)cc1Cl [Example 6n, 3-({[4-({[5-{1-[3-chloro-4-(methyloxy)phenyl]-1-methylethyl}-1-(4-fluorophenyl)-1H-imidazol-2-yl]thio}methyl)-3,5-difluorophenyl]sulfonyl}amino)-N,N,N-trimethylpropan-1-aminium] | < 100 nM | < 100 nM
9 | COc1cc(C(C)(C)c2cnc(SCc3c(F)cc(C(=O)NCC[N+](C)(C)CCCS(=O)(=O)[O-])cc3Cl)n2-c2ccc(F)cc2)ccc1Cl [Example 4, 3-((2-(3-Chloro-4-((5-(2-(4-chloro-3-methoxyphenyl)propan-2-yl)-1-(4-fluorophenyl)-1H-imidazol-2-ylthio)methyl)-5-fluorobenzamido)ethyl)dimethylammonio)-propane-1-sulfonate] | < 100 nM | < 100 nM
10 | COc1cc(C(C)(C)c2cnc(SCc3c(F)cc(S(=O)(=O)NCCC[N+](C)(C)C)cc3F)n2-c2ccc(F)cc2)ccc1Cl [Example 6, 3-(4-((5-(2-(4-Chloro-3-methoxyphenyl)propan-2-yl)—(4-fluorophenyl)-1H-imidazol-2-ylthio)methyl)-3,5-difluorophenylsulfonamido)-N,N,N-trimethylpropan-1-aminium 2,2,2-trifluoroacetate] | < 100 nM | < 100 nM
11 | COc1cc(C(C)(C)c2cnc(SCc3c(F)cc(S(=O)(=O)N[C@@H]4CCC[N+](C)(C)C4)cc3F)n2-c2ccc(F)cc2)ccc1Cl [Compound 11d, (3R)-3-({[4-({[5-{1-[4-chloro-3-(methyloxy)phenyl]-1-methylethyl}-1-(4-fluorophenyl)-1H-imidazol-2-yl]thio}methyl)-3,5-difluorophenyl]sulfonyl}amino)-1,1-dimethylpiperidinium] | < 100 nM | < 100 nM
12 | COc1cc(C(C)(C)c2cnc(SCc3c(F)cc(S(=O)(=O)N4CC[C@@H]([N+](C)(C)C)C4)cc3Cl)n2-c2ccc(F)cc2)ccc1Cl [Compound 11i, (3R)-1-{[3-chloro-4-({[5-{1-[4-chloro-3-(methyloxy)phenyl]-1-methylethyl}-1-(4-fluorophenyl)-1H-imidazol-2-yl]thio}methyl)-5-fluorophenyl]sulfonyl}-N,N,N-trimethylpyrrolidin-3-aminium] | < 100 nM | < 100 nM
13 | COc1cc(-n2c(C(C)(C)c3ccc(F)c(Cl)c3)cnc2SCc2c(F)cc(S(=O)(=O)NCCC[N+](C)(C)C)cc2F)ccc1F [Example 6h, 3-[({4-[({5-[1-(3-chloro-4-fluorophenyl)-1-methylethyl]-1-[4-fluoro-3-(methyloxy)phenyl]-1H-imidazol-2-yl}thio)methyl]-3,5-difluorophenyl}sulfonyl)amino]-N,N,N-trimethylpropan-1-aminium] | < 100 nM | < 100 nM
14 | COc1cc(C(C)(C)c2cnc(SCc3c(F)cc(C(=O)NCC[N+](C)(C)C)cc3Cl)n2-c2ccc(F)cc2)ccc1Cl [Example 1, 2-(3-chloro-4-((S-(2-(4-chloro-3-methoxyphenyl)propan-2-yl)-1-(4-fluorophenyl)-1H-imidazol-2-ylthio)methyl)-S-fluorobenzamido)-N,N,N-trimethylethanaminium chloride] | < 100 nM | < 100 nM
15 | COc1cc(C(C)(C)c2cnc(SCc3c(F)cc(S(=O)(=O)N4CCC([N+](C)(C)C)CC4)cc3Cl)n2-c2ccc(F)cc2)ccc1F [Compound 11o, 1-{[3-chloro-5-fluoro-4-({[5-{1-[4-fluoro-3-(methyloxy)phenyl]-1-methylethyl}-1-(4-fluorophenyl)-1H-imidazol-2-yl]thio}methyl)phenyl]sulfonyl}-N,N,N-trimethylpiperidin-4-aminium] | < 100 nM | < 100 nM
16 | COc1cc(C(C)(C)c2cnc(SCc3c(F)cc(S(=O)(=O)NCCC[N+](C)(C)C)cc3Cl)n2-c2ccc(F)cc2)ccc1Cl [Example 6j, 3-({[3-chloro-4-({[5-{1-[4-chloro-3-(methyloxy)phenyl]-1-methylethyl}-1-(4-fluorophenyl)-1H-imidazol-2-yl]thio}methyl)-5-fluorophenyl]sulfonyl}amino)-N,N,N-trimethylpropan-1-aminium] | < 100 nM | < 100 nM
17 | COc1cc(C(C)(C)c2cnc(SCc3c(F)cc(S(=O)(=O)Nc4cccc[n+]4C)cc3Cl)n2-c2ccc(F)cc2)ccc1F [Compound 11t, 2-({[3-chloro-5-fluoro-4-({[5-{1-[4-fluoro-3-(methyloxy)phenyl]-1-methylethyl}-1-(4-fluorophenyl)-1H-imidazol-2-yl]thio}methyl)phenyl]sulfonyl}amino)-1-methylpyridinium] | < 100 nM | < 100 nM
